Laboratory results: patent US9067898B1, “Isothiazole derivatives as GPR120 agonists for the treatment of type II diabetes” (Janssen Pharmaceutica NV, priority 2014, dated 2015)

Experiments:
[1] = tested on: C57B16 mice on a high fat diet (DIO); experiment: GPR120 DIO mice OGTT screening; assay type: in vivo, mouse; design: DIO Lowering Glucose AUC (−30 to 90) @ 10 mg/kg: unit not given here; settings: for change in vivo at 10 mg/kg: Mus musculus, read-out: DIO Lowering Glucose AUC (−30 to 90) @ 10 mg/kg, heading: DIO Lowering Glucose AUC @ 10 mg/kg, 10 mg/kg dosed 30 min before PO glucose, change from vehicle; for DIO Lowering Glucose AUC (−30 to 90) @ 10 mg/kg: 10 mg/kg dosed 30 min before PO glucose, change from vehicle
Protocol: 18-22 week old, C57B16 mice on a high fat diet (60% HFD) for 12-16 weeks (ave. body weight ˜37-41 g) were fasted for 6 hr, with removal of food occurring at 7 am on the morning of the study. The animals were sorted into treatment groups the day before the study by body weight. Animals outside the bounds of ˜30-50 g were left out of the study. The animals had been handled and shammed a total of 5-8 days (1-3 days immediately prior to the study). Glucose (in 1 mL syringes) was drawn up the morning of the study. Test compounds were kept spinning and were only drawn into 1 ml syringes prior to study commencement. Animals were bled via tail snip to determine basal glucose levels prior to dosing of treatments. An Ascensia BREEZE Blood Glucose Monitoring System by Bayer was used for determining glucose levels.
Animals were moved into the testing room at ˜9-11 am, to yield them time to acclimate. The bleeds and dosing started at approximately 1 pm in 30-second intervals per animal. All groups were dosed 30 minutes prior to glucose administration at a dose volume of 10 ml/kg (the dose volume was calculated separately for each individual animal). Test compounds were administered at one or more of the following dosages: 0.1 mg/kg, 0.3 mg/kg, 1 mg/kg, 3 mg/kg and 10 mg/kg.
Thirty minutes after the first dose (with test compound) animals were bled again for a second baseline, or T=0, and immediately dosed with glucose (20% solution; TEKNOVA, 250 ml sterile bottle w/catalogue number G0525) via a PO injection. The exact dose volume for glucose was also calculated separately for each individual animal.
Blood glucose was measured at 15, 30, 45, 60, and 90 minutes post-glucose administration via the snipped tail. If an animal reached a value of “HI”, the upper limit of the glucometer (600 mg/dl) was substituted as the blood glucose value and the study was analyzed as normal with no exclusions. If 50% or more of any treatment group reaches a “HI” value at least once, the study was considered invalid and repeated. Glucose values were typed into an EXCEL spreadsheet where they were used to calculate glucose AUC and delta AUC post-compound and post-glucose. The glucose excursion curves and the different versions of the AUC's were graphed in GraphPad Prism 5.
Note: All statistics completed in this study were completed using the statistical software package GraphPad Prism 5. Standard procedures for analyzing data sets from screening GPR120 compounds in DIO mouse OGTT's were as listed here below. In addition to the statistics that were run using GraphPad Prism 5, Microsoft Excel was used to calculate the percent changes in AUC from vehicle groups as detailed below.
Change from −30 to 0 BSLN Glucose, Raw Glucose AUC −30 to 90 min, Delta Glucose AUC −30 to 90 min, Raw Glucose AUC 0 to 90 min, Delta Glucose AUC 0 to 90 min were analyzed using Column Statistics Analysis, with mean values used to calculate % change from the vehicle mean group, as well as mean, SEM and/or % change from vehicle, where appropriate; and using One-Way ANOVA w/a Tukey Post-Test (Comparing All Pairs of Columns) with each treatment group examined to see if it was statistically significant compared to vehicle (*=P<0.05, **=P<0.01, ***=P<0.001).
Representative compounds of the present invention were tested according to the procedure as described in Biological Example 3, with results as listed in Table 2, below. Where a compound was tested more than once, each result is listed individually.

[2] = tested on: C57bl/6J mice; experiment: C57bl6 mouse OGTT; assay type: in vivo; settings: 3 mg/kg dosed 30 min before glucose PO 3 g/kg
Protocol: (§1) Male, C57bl/6J Mice were ordered in at 8 weeks of age from Jackson Labs. Individual mice weighed anywhere in the range of 25-30 grams on study day. The mice were fasted, with removal of food occurring at 7 am on the morning of the study. Animals were moved into the room at 10:00 am, to give them time to acclimate. Glucose (insulin syringes) was drawn up either the night before or the morning of the study. Glucose was dosed (IP) at 1.5 g/kg at 7.5 ml/kg (20% glucose straight TEKNOVA, 250 ml sterile bottle w/catalogue number G0525). Test compounds were kept spinning and were only drawn into the syringes prior to study commencement. Animals were bled via tail snip to determine basal glucose levels prior to dosing of treatments. An Ascensia BREEZE Blood Glucose Monitoring System by Bayer (using unique 10-test disks) was used for determining glucose levels. The bleeds started at approximately 12:45 pm and dosing started, at 1-minute intervals, immediately after. All groups were dosed 30 minutes prior to glucose administration at a dose volume of 10 ml/kg (the dose volume was calculated separately for each individual animal). Thirty minutes after the first dose animals were bled again for a second baseline, or T=0, and immediately dosed with glucose via an i.p. injection. The exact dose volume for glucose was also calculated separately for each individual animal. Glucose measurements were taken at −30 min prior to compound dose, at t=0 (immediately prior to glucose dose), and at 15, 30, 45, 60, 90 min post glucose dose.
Glucose values were entered into an Excel sheet and graphed in GraphPad Prism. The following were calculated from Prism: Change from −30 to 0 BSLN Glucose, Raw Glucose AUC −30 to 90 min, Delta Glucose AUC −30 to 90 min, Raw Glucose AUC 0 to 90 min, Delta Glucose AUC 0 to 90 min.
The assay design is the same as that described above for the C57bl6 mouse IPGTT. The difference is that glucose was dosed PO at 3 g/kg, 7.5 ml/kg of 40% glucose.
Representative compounds of the present invention were tested according to the procedures as described in Biological Example 4, above with results as listed in Table 3, below. […] Where a compound was tested more than once, each result is listed individually.

[3] = tested on: C57bl/6J mice; experiment: GPR120 C57bl6 mouse IPGTT; assay type: in vivo; settings: 10 mg/kg dosed 30 min before glucose IP 1.5 g/kg
Protocol: as §1, with “Glucose measurements were taken at −30 min prior to compound dose, at t=0 (immediately prior to glucose dose), and at 15, 30, 45, 60, 90 min post glucose dose.” left out

| Compound | DIO Lowering Glucose AUC (−30 to 90) @ 10 mg/kg [1] | C57 OGTT 3 mg/kg [2] | further results |
| --- | --- | --- | --- |
| CCc1ccc(-c2cc(F)sc2COc2ccc(CCC(=O)O)c(C)c2C)cc1 [Cpd 1, 3-(4-[[3-(4-ethylphenyl)-5-fluorothiophen-2-yl]methoxy]-2,3-dimethylphenyl)propanoic acid] |  |  | change in vivo at 10 mg/kg [1]: -26% |
| O=C(O)CCc1cc(F)c(OCc2c(C3CCCC3)nsc2C(F)(F)F)c(F)c1 [Cpd 71, 3-(4-[[3-cyclopentyl-5-(trifluoromethyl)-1,2-thiazol-4-yl]methoxy]-3,5-difluorophenyl)propanoic acid] | −0.52 | −37 |  |
| 3-(4-[[3-(4-ethylphenyl)-5-(trifluoromethyl)-1,2-thiazol-4-yl]methoxy]-3,5-difluorophenyl)propanoic acid [Cpd 70] | −0.5 |  |  |
| Cc1c(CCC(=O)O)ccc(OCc2c(-c3ccc(Cl)cc3)nsc2C(F)(F)F)c1C [Cpd 142, 3-(4-((3-(4-chlorophenyl)-5-(trifluoromethyl)isothiazol-4-yl)methoxy)-2,3-dimethylphenyl)propanoic acid] |  | −49 |  |
| Cc1ccc(-c2nsc(C(F)(F)F)c2COc2c(F)cc(CC(C)C(=O)O)cc2F)c(F)c1 (stereo not shown) [Cpd 76, 3-(3,5-difluoro-4-[[3-(2-fluoro-4-methylphenyl)-5-(trifluoromethyl)-1,2-thiazol-4-yl]methoxy]phenyl)-2-methylpropanoic acid] | −0.8 |  |  |
| CCc1ccc(-c2snc(Cl)c2COc2ccc(CCC(=O)O)c(C)c2C)cc1 [Cpd 85, 3-(4-[[3-chloro-5-(4-ethylphenyl)-1,2-thiazol-4-yl]methoxy]-2,3-dimethylphenyl)propanoic acid] |  | −49 |  |
| Cc1ccc(-c2nsc(C(F)(F)F)c2COc2c(F)cc(CCC(=O)O)cc2F)c(F)c1 [Cpd 65, 3-(3,5-difluoro-4-[[3-(2-fluoro-4-methylphenyl)-5-(trifluoromethyl)-1,2-thiazol-4-yl]methoxy]phenyl)propanoic acid] | −0.61 |  |  |
| O=C(O)CCc1cc(F)c(OCc2c(-c3ccc(Cl)c(F)c3)nsc2C(F)(F)F)c(F)c1 [Cpd 67, 3-(4-((3-(4-chloro-3-fluorophenyl)-5-(trifluoromethyl)isothiazol-4-yl)methoxy)-3,5-difluorophenyl)propanoic acid] | −0.78 |  |  |
| OCCCc1ccc(OCc2c(Cl)nsc2-c2ccc(Cl)cc2)c(F)c1F [Cpd 102, 3-(4-((3-chloro-5-(4-chlorophenyl)isothiazol-4-yl)methoxy)-2,3-difluorophenyl)propan-1-ol] |  | −32 |  |
| Cc1c(CCC(=O)O)ccc(OCc2sc(F)cc2-c2ccc(Cl)cc2)c1C [Cpd 3, 3-(4-((3-(4-chlorophenyl)-5-fluorothiophen-2-yl)methoxy)-2,3-dimethylphenyl)propanoic acid] |  |  | change in vivo at 10 mg/kg [1]: -49% |
| CCc1ccc(-c2nsc(C(F)(F)F)c2COc2ccc(CCC(=O)O)c(F)c2F)cc1 [Cpd 73, 3-(4-((3-(4-ethylphenyl)-5-(trifluoromethyl)isothiazol-4-yl)methoxy)-2,3-difluorophenyl)propanoic acid] | −0.51 |  |  |
| O=C(O)CCc1cc(F)c(OCc2c(-c3ccc(Cl)cc3F)nsc2C(F)(F)F)c(F)c1 [Cpd 74, 3-(4-((3-(4-chloro-2-fluorophenyl)-5-(trifluoromethyl)isothiazol-4-yl)methoxy)-3,5-difluorophenyl)propanoic acid] | −0.71 |  |  |
| OCCCc1cc(F)c(OCc2c(-c3ccc(Cl)cc3)nsc2C(F)(F)F)c(F)c1 [Cpd 100, 3-(4-[[3-(4-chlorophenyl)-5-(trifluoromethyl)-1,2-thiazol-4-yl]methoxy]-3,5-difluorophenyl)propan-1-ol] |  | −39 |  |
| 3-(4-[[3-(4-ethylphenyl)-5-(trifluoromethyl)-1,2-thiazol-4-yl]methoxy]-1-benzothiophen-7-yl)propanoic acid [Cpd 92] |  | −39 | C57 IPGTT 10 mg/kg [3]: −41 |
